Data as given in publication PMC4120670 (Kidney International, 2014).

Tests used:
[1] = clinical plasma concentration; cited from earlier work
[2] = target: MATE2-K (Homo sapiens, UniProt Q86VL8); test: Inhibition of MATE2-K transport of tetraethylammonium; type: cell-based
[3] = target: T1, MATE1 (Homo sapiens, UniProt Q96FL8); test: Inhibition of MATE1 transport of tetraethylammonium; type: cell-based
T1 sequence (Q96FL8 1-570): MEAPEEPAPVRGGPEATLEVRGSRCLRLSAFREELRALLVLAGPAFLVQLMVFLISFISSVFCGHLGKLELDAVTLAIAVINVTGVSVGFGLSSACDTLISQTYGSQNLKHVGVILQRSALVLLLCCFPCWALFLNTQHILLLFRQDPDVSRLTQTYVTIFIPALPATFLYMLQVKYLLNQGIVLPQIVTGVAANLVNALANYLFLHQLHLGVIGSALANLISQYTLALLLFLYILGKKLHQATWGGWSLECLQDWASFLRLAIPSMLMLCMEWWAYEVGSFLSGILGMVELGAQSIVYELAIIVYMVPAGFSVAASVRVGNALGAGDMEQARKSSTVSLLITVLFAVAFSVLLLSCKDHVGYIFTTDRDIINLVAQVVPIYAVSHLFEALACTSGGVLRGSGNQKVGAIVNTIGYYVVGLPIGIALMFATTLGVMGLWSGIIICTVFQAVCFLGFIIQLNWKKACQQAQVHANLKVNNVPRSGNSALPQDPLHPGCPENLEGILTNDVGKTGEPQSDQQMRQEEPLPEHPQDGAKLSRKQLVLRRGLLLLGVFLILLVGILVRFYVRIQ

[4] = target: T2, OAT2 (Homo sapiens, UniProt Q9Y694); test: Inhibition of OAT2 transport of 3′,5′-cyclic GMP; type: cell-based
T2 sequence (Q9Y694 1-548): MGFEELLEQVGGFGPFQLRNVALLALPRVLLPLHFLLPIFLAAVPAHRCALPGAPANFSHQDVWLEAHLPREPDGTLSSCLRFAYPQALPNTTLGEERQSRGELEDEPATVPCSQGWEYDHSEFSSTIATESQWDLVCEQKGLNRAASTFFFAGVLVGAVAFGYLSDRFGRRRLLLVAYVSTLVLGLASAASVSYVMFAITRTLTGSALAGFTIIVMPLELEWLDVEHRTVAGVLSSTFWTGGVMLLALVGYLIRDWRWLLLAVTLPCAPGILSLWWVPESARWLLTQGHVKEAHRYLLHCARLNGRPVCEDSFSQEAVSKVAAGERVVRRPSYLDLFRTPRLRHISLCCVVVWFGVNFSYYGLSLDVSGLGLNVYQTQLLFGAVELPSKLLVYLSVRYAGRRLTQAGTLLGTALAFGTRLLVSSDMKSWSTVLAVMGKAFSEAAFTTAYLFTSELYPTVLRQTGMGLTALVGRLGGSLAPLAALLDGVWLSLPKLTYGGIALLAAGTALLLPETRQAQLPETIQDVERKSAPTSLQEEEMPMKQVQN

[5] = target: T3, OCT3 (Homo sapiens, UniProt O75751); test: Inhibition of OCT3 transport of 1-methyl-4-phenylpyridinium; type: cell-based; settings: for Concentration-dependent inhibition of OCT3-dependent transport: model substrate, curve could not be generated
T3 sequence (O75751 1-556): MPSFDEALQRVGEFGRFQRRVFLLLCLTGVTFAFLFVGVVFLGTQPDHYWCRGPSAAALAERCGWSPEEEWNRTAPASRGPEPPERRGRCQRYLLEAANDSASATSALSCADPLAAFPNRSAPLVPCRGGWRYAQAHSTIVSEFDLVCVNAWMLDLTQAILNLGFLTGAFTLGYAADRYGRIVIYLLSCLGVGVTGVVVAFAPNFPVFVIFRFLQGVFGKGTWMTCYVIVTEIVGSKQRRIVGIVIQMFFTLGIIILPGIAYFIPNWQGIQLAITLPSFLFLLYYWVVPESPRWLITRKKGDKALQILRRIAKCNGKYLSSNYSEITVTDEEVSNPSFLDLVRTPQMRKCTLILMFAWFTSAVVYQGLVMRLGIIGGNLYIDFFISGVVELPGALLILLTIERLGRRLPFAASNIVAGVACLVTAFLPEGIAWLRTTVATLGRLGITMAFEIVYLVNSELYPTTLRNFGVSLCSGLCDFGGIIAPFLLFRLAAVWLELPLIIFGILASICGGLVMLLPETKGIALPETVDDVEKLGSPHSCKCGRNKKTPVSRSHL

[6] = cited from earlier work
[7] = test system: human primary proximal tubule cells; test: Cobicistat uptake in fresh isolated primary proximal tubule cells; type: cell-based; settings: cobicistat 1 μmol/l; cimetidine 1500 μmol/l or probenecid 90 μmol/l
[8] = target: T4, OAT3 (Homo sapiens, UniProt Q8TCC7); settings: cobicistat 1 μmol/l; HEK293; diclofenac or probenecid 90 μmol/l
T4 sequence (Q8TCC7 1-542): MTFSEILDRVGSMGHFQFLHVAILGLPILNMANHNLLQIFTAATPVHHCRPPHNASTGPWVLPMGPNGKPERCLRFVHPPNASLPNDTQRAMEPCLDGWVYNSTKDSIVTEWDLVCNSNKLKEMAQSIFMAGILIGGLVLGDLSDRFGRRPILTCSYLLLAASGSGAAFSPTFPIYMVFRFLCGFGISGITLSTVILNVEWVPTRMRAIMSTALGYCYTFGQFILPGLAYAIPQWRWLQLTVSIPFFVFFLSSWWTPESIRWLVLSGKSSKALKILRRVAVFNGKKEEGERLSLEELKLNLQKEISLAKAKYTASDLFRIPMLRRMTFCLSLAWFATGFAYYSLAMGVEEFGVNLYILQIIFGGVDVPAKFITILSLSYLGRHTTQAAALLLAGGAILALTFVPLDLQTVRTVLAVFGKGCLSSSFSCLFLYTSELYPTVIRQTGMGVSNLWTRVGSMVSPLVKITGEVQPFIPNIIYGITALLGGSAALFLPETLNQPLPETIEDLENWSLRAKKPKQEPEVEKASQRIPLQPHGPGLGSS

[9] = target: T1, MATE1; test: Inhibition of MATE1-mediated creatinine transport; type: cell-based
[10] = target: T5, OCT2 (Homo sapiens, UniProt O15244); test: Inhibition of OCT2 transport of tetraethylammonium; type: cell-based
T5 sequence (O15244 1-555): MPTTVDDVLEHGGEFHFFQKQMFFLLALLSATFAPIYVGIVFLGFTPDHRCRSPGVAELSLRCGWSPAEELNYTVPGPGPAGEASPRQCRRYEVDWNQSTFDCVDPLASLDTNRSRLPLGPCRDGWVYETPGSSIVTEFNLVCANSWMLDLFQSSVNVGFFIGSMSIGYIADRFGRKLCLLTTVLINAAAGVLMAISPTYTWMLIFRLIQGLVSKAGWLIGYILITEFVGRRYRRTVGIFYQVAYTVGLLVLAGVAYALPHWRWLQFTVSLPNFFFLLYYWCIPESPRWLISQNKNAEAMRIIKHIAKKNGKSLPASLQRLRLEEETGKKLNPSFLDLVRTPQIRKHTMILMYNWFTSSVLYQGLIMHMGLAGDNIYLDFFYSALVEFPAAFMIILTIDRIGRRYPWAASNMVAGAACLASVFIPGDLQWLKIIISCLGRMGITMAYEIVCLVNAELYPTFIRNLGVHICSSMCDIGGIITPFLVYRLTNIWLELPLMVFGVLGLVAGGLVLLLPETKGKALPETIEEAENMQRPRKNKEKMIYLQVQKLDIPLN

[11] = more modest effects, clinical; cited from earlier work
[12] = target: T5, OCT2; test: Cobicistat uptake in MDCKII cells transfected with OCT2; type: cell-based; settings: cobicistat 1 μmol/l; vs nontransfected MDCKII cells; 5% bovine serum albumin
[13] = test system: MATE1; settings: read-out: Ki MATE1; cited from earlier work
[14] = test system: MATE2-K; settings: read-out: Ki MATE2-K; cited from earlier work
[15] = most prominent effects, clinical; cited from earlier work
[16] = target: T5, OCT2; test: Inhibition of OCT2-dependent metformin transport; type: cell-based

Chain of MATE2-K (Homo sapiens, UniProt Q86VL8) (Q86VL8 1-566 isoform Q86VL8-3): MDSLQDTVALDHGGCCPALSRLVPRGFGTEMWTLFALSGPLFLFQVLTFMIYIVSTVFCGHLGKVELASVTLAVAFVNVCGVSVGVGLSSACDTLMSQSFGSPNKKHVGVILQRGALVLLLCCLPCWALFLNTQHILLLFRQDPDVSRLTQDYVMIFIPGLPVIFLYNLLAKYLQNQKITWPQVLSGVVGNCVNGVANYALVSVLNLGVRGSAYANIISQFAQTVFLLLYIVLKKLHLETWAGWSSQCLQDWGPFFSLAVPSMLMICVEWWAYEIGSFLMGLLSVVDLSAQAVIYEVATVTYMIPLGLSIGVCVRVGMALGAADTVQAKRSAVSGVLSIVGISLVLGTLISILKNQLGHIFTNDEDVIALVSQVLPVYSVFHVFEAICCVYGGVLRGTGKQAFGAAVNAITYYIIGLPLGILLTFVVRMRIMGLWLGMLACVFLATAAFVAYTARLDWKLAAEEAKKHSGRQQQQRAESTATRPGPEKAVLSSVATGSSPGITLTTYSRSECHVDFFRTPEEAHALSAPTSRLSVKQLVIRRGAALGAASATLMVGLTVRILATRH

Row | SMILES | Bound to plasma proteins [1] | IC50 [2] | IC50 [3] | IC50 [4] | IC50 [5] | Concentration-dependent inhibition of OCT3-dependent transport [5] | Maximum plasma concentration ([6]; clinical) | Renal elimination ([6]; in humans) | Transporter-dependent uptake in primary proximal tubule cells [7] | Inhibitor-sensitive accumulation in cells transfected with OAT3 [8] | IC50 [9] | IC50 [10] | Serum creatinine increases [11] | Increase in cobicistat accumulation in cells transfected with OCT2 [12] | Ki [13] | Ki [14] | Decreases in creatinine clearance [15] | Concentration-dependent inhibition of OAT2-dependent transport ([4]; model substrate, curve could not be generated) | IC50 [16]
1 | CC(C)c1nc(CN(C)C(=O)N[C@@H](CCN2CCOCC2)C(=O)N[C@H](CC[C@H](Cc2ccccc2)NC(=O)OCc2cncs2)Cc2ccccc2)cs1 [Cobicistat, cobicistat] | over 90% | 33500 ± 4200 nM | 1870 ± 220 nM | > 100000 nM | > 100000 nM | lack of concentration-dependent inhibition | 1.4 µmol/L | approximately 8% | small but reproducible decreases in accumulation in the presence of the transport inhibitors cimetidine or probenecid | no inhibitor-sensitive accumulation | 990 nM | 24000 ± 4600 nM | ~0.1 mg/dL | 2.9 fold | – | – | – | – | –
2 | CCc1nc(N)nc(N)c1-c1ccc(Cl)cc1 [Pyrimethamine, pyrimethamine] | – | – | – | – | – | – | – | – | – | – | – | – | – | – | 93 nM | 59 nM | 15–34 ml/min per 1.73 m^2 | – | –
3 | C[C@@H]1CCO[C@H]2Cn3cc(C(=O)NCc4ccc(F)cc4F)c(=O)c(O)c3C(=O)N12 [Dolutegravir, dolutegravir] | – | > 100000 nM | 4670 ± 1110 nM | > 100000 nM | > 100000 nM | lack of concentration-dependent inhibition | – | – | – | – | – | 66 ± 3 nM | ~0.1 mg/dL | – | – | – | – | lack of concentration-dependent inhibition | 110 nM
